Biological target: T1, Human sputum neutrophil elastase (Homo sapiens, UniProt P08246)
T1 construct: purchased Elastin Products Co; host or cells: human sputum (natural source)
T1 sequence (P08246 30-247 limits assumed): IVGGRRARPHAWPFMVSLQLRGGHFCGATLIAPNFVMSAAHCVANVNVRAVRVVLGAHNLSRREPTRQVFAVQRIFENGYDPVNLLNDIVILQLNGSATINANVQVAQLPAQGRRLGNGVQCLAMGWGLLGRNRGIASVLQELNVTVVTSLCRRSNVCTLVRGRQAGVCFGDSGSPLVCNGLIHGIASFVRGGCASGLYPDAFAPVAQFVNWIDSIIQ
Test: Inhibitor IC50 against human neutrophil elastase (fluorogenic MeOSuc-AAPV-AMC substrate)
Format: biochemical
Settings: 20 min preincubation, read-out: HNE IC50
Protocol: Determination of Inhibitor IC50 Values Against Human Neutrophil Elastase
Human sputum neutrophil elastase (Elastin Products Co.) was diluted into Assay Buffer A (200 mM Tris pH 7.4, 1 mg/ml BSA) to a working concentration of 0.55 U/ml. […] DMSO alone was used as the negative control. MeOSuc-AAPV-AMC (Bachem) substrate was dissolved in DMSO to 20 mM and further diluted to 1 mM in Assay Buffer A immediately before use. Substrate was added to the elastase assay at a final concentration of 1×10^−4 M. The reaction was allowed to proceed for 20 minutes at room temperature and then quenched with acetic acid at a final concentration of 3% (v/v). […] Fluorescence intensity versus inhibitor concentration was plotted and fit to the Hill equation to quantify IC50 values.

Structure (SMILES)	IC50 [µM]
O=c1oc(-c2cccs2)nc2ccccc12 [Compound 8]	> 0.15
CCSc1ncccc1-c1nc2cccc(C)c2c(=O)o1 [Compound 40]	> 0.15
COc1cc(C2CCC2)c2c(=O)oc(-c3cccnc3N3CCN(CCN4CCOCC4)CC3)nc2c1 [Compound 187]	> 0.15
COc1cc(C(C)C)c2c(=O)oc(-c3cnn(C)c3N3CC[C@H](N(C)C)C3)nc2c1 [Compound 126]	> 0.15
CCc1cc(N(C)C)cc2nc(-c3cccnc3N(C)C3CCN(C)C3)oc(=O)c12 (stereo not shown) [Compound 144]	> 0.15
COc1cccc2nc(-c3ncccc3-n3ccnc3)oc(=O)c12 [Compound 69]	> 0.15
COc1cc(C(C)C)c2c(=O)oc(-c3cccnc3N3CC[N+](C)(CC(N)=O)CC3)nc2c1 [Compound 129]	0.061 to 0.15
COc1cc(C2CC2)c2c(=O)oc(-c3cccnc3N3CCN(CCN4CCOCC4)CC3)nc2c1 [Compound 168]	0.061 to 0.15
Cc1cccc2nc(-c3cccnc3OCCOCCOCCOCc3ccccc3)oc(=O)c12 [Compound 56]	> 0.15
Cc1cccc2nc(-c3cccc[n+]3[O-])oc(=O)c12 [Compound 73]	> 0.15
O=c1oc(-c2ccccn2)nc2cccc(Cl)c12 [Compound 12]	0.061 to 0.15
CCCc1cc(OC)cc2nc(-c3cccnc3N3CC[C@@H](N(C)C)C3)oc(=O)c12 [Compound 149]	0.061 to 0.15
CCc1cc(OC)cc2nc(-c3ccnc(N4CCN(C)CC4)c3)oc(=O)c12 [Compound 205]	> 0.15
COc1cc(C(C)C)c2c(=O)oc(-c3cccnc3N3CC[N+](C)(C)CC3)nc2c1 [Compound 130]	0.061 to 0.15
COc1cc(C(C)C)c2c(=O)oc(-c3cccnc3N3CCN(CC4CC4)CC3)nc2c1 [Compound 112]	0.061 to 0.15
CCCc1cc(OC)cc2nc(-c3cccnc3N3CCC(C(=O)C[S+](C)[O-])CC3)oc(=O)c12 (stereo not shown) [Compound 163]	0.061 to 0.15
CCc1cccc2cc(-c3c[n+]([O-])ccc3Sc3ccc(Cl)cc3)oc(=O)c12 [Compound 86]	0.061 to 0.15

Structure (SMILES)	IC50 [µM]
COc1cc(C2CCC2)c2c(=O)oc(-c3cccnc3N3CC[C@H](N(C)C)C3)nc2c1 [Compound 176]	0.061 to 0.15
COc1cccc2nc(-c3cccnc3N(C)CC(=O)OCc3ccccc3)oc(=O)c12 [Compound 41]	> 0.15
Cc1cccc2nc(-c3cccnc3OCCN(C)C)oc(=O)c12 [Compound 61]	> 0.15
O=c1oc(-c2ccccn2)nc2cc(Cl)cc(Cl)c12 [Compound 11]	> 0.15
Cc1cccc2nc(-c3ncccc3-n3ccnc3)oc(=O)c12 [Compound 68]	> 0.15
COc1cc(C2CC2)c2c(=O)oc(-c3cccnc3N(C)CCN(C)C)nc2c1 [Compound 172]	0.061 to 0.15
Cc1cccc2nc(-c3cccnc3OCCOCCOCCOCCOc3ncccc3C(=O)O)oc(=O)c12 [Compound 58]	0.061 to 0.15
CCCc1cc(OC)cc2nc(-c3cccnc3N(C)C3CCN(C)C3)oc(=O)c12 (stereo not shown) [Compound 146]	> 0.15
COc1cccc2nc(-c3cccnc3N3CCN(C)C(C)C3)oc(=O)c12 (stereo not shown) [Compound 45]	> 0.15
COc1cc(C(C)C)c2c(=O)oc(-c3cnn(C)c3N3CCN(CCN(C)C)CC3)nc2c1 [Compound 125]	> 0.15
COCCN1CCN(c2c(-c3nc4cc(OC)cc(C(C)C)c4c(=O)o3)cnn2C)CC1 [Compound 119]	> 0.15
COc1cc(C(C)C)c2c(=O)oc(-c3cnn(C)c3N3CCC(N(C)C)C3)nc2c1 (stereo not shown) [Compound 127]	> 0.15
CCCc1cc(OC)cc2nc(-c3cccnc3N3CCN(CCN4CCOCC4)CC3)oc(=O)c12 [Compound 147]	0.061 to 0.15
COc1cc(C(C)C)c2c(=O)oc(-c3cccnc3N3CCN(CCN(C)C)CC3)nc2c1 [Compound 115]	0.061 to 0.15
COc1cc(C(C)C)c2c(=O)oc(-c3cccnc3N3CC[C@H](N(C)C)C3)nc2c1 [Compound 111]	0.061 to 0.15
Cc1cccc2nc(-c3ccncc3)oc(=O)c12 [Compound 9]	> 0.15

Results, then the molecule that gave them:

IC50 [µM]	Structure (SMILES)
< 0.015	CCc1cc(OC)cc2nc(-c3cccnc3N(C)CC3CCN(C)CC3)oc(=O)c12 [Compound 242]
< 0.015	CCc1cc(OC)cc2nc(-c3cccnc3N3CCC(N(CC)CC)C3)oc(=O)c12 (stereo not shown) [Compound 189]
0.016 to 0.06	O=c1oc(-c2cccnc2Oc2ccc(Cl)cc2)nc2cccc(Cl)c12 [Compound 25]
< 0.015	CCc1cc(OC)cc2nc(-c3cccnc3N3CC[C@H](N4CCNC(=O)C4)C3)oc(=O)c12 [Compound 261]
< 0.015	CCc1cc(OC)cc2nc(-c3cccnc3N3CCN(CCC(=O)O)CC3)oc(=O)c12 [Compound 213]
0.016 to 0.06	COc1cc(C(C)C)c2c(=O)oc(-c3cccnc3-n3ccnc3)nc2c1 [Compound 109]
0.061 to 0.15	CCc1cc(OC)cc2nc(-c3cccnc3N3CCC(Cc4ccccc4)CC3)oc(=O)c12 [Compound 224]
0.061 to 0.15	COCCN1CCN(c2ncccc2-c2nc3cc(OC)cc(C4CC4)c3c(=O)o2)CC1 [Compound 167]
0.016 to 0.06	CCCc1cc(OC)cc2nc(-c3cccnc3N3CCN(CCN(C)C)CC3)oc(=O)c12 [Compound 158]
< 0.015	CCOCCN1CCN(c2ncccc2-c2nc3cc(OC)cc(CC)c3c(=O)o2)CC1 [Compound 203]
0.016 to 0.06	COc1cc(C(C)C)c2c(=O)oc(-c3cnn(C)c3[N+](=O)[O-])nc2c1 [Compound 120]
0.016 to 0.06	Cc1cccc2nc(-c3cccnc3N3CC[C@H](N(C)C)C3)oc(=O)c12 [Compound 177]
< 0.015	CCc1cccc2nc(-c3cccnc3N3CC[N+](C)(CCOC)CC3)oc(=O)c12 [Compound 96]
0.016 to 0.06	CCc1cc(OC)cc2nc(-c3cccnc3N3CCN(CCOCCO)CC3)oc(=O)c12 [Compound 210]
0.016 to 0.06	Cc1cccc2nc(-c3cccnc3N3CCN(CCN(C)C)CC3)oc(=O)c12 [Compound 180]
< 0.015	C#CCN1CCN(c2ncccc2-c2nc3cccc(C(F)(F)F)c3c(=O)o2)CC1 [Compound 235]
< 0.015	CCc1cccc2nc(-c3cccnc3N3CC[N+](C)(CC(N)=O)CC3)oc(=O)c12 [Compound 101]
0.016 to 0.06	CCc1cc(OC)cc2nc(-c3cccc(N4CCN(C)CC4)n3)oc(=O)c12 [Compound 206]
< 0.015	CCc1cc(OC)cc2nc(-c3cccnc3N(CC)CCCN3CCOCC3)oc(=O)c12 [Compound 238]
< 0.015	CCc1cc(OC)cc2nc(-c3cccnc3N3CC[N+](C)(CCOC)CC3)oc(=O)c12 [Compound 230]
< 0.015	CCc1cc(OC)cc2nc(-c3cccnc3N3CCC(CN4CCOCC4)CC3)oc(=O)c12 [Compound 245]
< 0.015	CCc1cc(OC)cc2nc(-c3cccnc3N3CCN(CC(=O)N4CCOCC4)CC3)oc(=O)c12 [Compound 197]

IC50 [µM]	Structure (SMILES)
0.016 to 0.06	COc1cc(C2CCC2)c2c(=O)oc(-c3cccnc3N(C)CCN(C)C)nc2c1 [Compound 188]
< 0.015	CCc1cc(OC)cc2nc(-c3cccnc3N3CCC(C)(C(=O)NCCN(CC)CC)CC3)oc(=O)c12 [Compound 274]
0.016 to 0.06	CCc1cc(OC)cc2nc(-c3cccnc3N3CCC(CN(C)C)CC3)oc(=O)c12 [Compound 246]
0.016 to 0.06	O=c1oc(-c2cccnc2SCCS(=O)(=O)c2ccccc2)nc2cccc(Cl)c12 [Compound 30]
0.016 to 0.06	CN1CCN(c2ncccc2-c2nc3cccc(C(F)(F)F)c3c(=O)o2)CC1 [Compound 63]
0.016 to 0.06	CCOC(=O)CCN1CCN(c2ncccc2-c2nc3cc(OC)cc(CC)c3c(=O)o2)CC1 [Compound 221]
< 0.015	CCc1cccc2nc(-c3cccnc3N3CCN(Cc4ccc(F)cc4)CC3)oc(=O)c12 [Compound 99]
0.016 to 0.06	Cc1cccc2nc(-c3cccnc3N3CCN(CCN4CCOCC4)CC3)oc(=O)c12 [Compound 179]
0.016 to 0.06	CCc1cc(OC)cc2nc(-c3cccnc3N3CCN(C(C)C)CC3)oc(=O)c12 [Compound 201]
0.016 to 0.06	CCc1cc(OC)cc2nc(-c3cccnc3N3CCC(C)(C(=O)N4CCN(C)CC4)CC3)oc(=O)c12 [Compound 273]
< 0.015	CCc1cccc2nc(-c3cccnc3N3CCN(CCC#N)CC3)oc(=O)c12 [Compound 93]
< 0.015	CCc1cc(OC)cc2nc(-c3cccnc3N3CC[C@@H](N(C)CCOC)C3)oc(=O)c12 [Compound 265]
< 0.015	O=c1oc(-c2cccnc2-n2ccnc2)nc2cccc(C(F)(F)F)c12 [Compound 64]
< 0.015	CCc1cc(OC)cc2nc(-c3cccnc3N3CC[N+](C)(C)CC3)oc(=O)c12 [Compound 229]
< 0.015	CCc1cccc2nc(-c3cccnc3N3CC[C@@H](N(C)C)C3)oc(=O)c12 [Compound 100]
< 0.015	CCc1cc(OC)cc2nc(-c3cccnc3N3CCC(CCN4CCOCC4)CC3)oc(=O)c12 [Compound 247]
< 0.015	CCc1cccc2nc(-c3ncccc3-n3ccnc3)oc(=O)c12 [Compound 97]
< 0.015	CCc1cccc2nc(-c3cccnc3N3CC[N+](C)(CC4CC4)CC3)oc(=O)c12 [Compound 103]
< 0.015	CCc1cccc2nc(-c3cccnc3N3CC[N+](C)(Cc4ccc(OC)cc4)CC3)oc(=O)c12 [Compound 102]
< 0.015	C#CCN1CCN(c2ncccc2-c2nc3cccc(CC)c3c(=O)o2)CC1 [Compound 234]
0.016 to 0.06	CCc1cc(OC)cc2nc(-c3cccnc3N3CCN(CCCC#N)CC3)oc(=O)c12 [Compound 219]

Source: patent publication US7879846B2, “Serine hydrolase inhibitors” (Kyorin Pharmaceutical Co.., Ltd., priority 2006, dated 2011)
